# Measured values published in ChEMBL document CHEMBL1201862, “PubChem BioAssay data set” (2004).
# The source made the active and inactive calls.
# Tests used:
# Candida albicans [1] = assay: reversal of fluconazole resistance in C. albicans, dose response, CaCi-2 strain, Alamar Blue, dry powder, set 3 (AID 488907); type: functional, organism-based
# Candida albicans [2] = assay: growth inhibition of azole-resistant C. albicans, dose response, CaCi-8 strain, Alamar Blue, dry powder, set 3 (AID 488905); type: functional, organism-based
# HEK293 = assay: inhibitors of LMP1-driven NF-kB reporter, dose response, cell-based, HEK293, luciferase, cherry-pick (AID 588343); type: functional; settings: Homo sapiens
# [3] = target: Latent membrane protein 1 (Human herpesvirus 4 (strain B95-8), UniProt P03230); assay: TES1-eGFP NF-kB reporter inhibition versus Tet-On dsRED, dose response, selectivity assay for LMP1 NF-kB inhibitor project, imaging, HEK293T, dual-color eGFP/dsRED, cherry-picks (AID 588398); type: functional, cell-based
# INS1 [4] = assay: protection from cytokine-induced mitochondrial depolarization, dose response, cell-based, INS-1E, JC-1 fluorescence ratio, dry powder (AID 488931); type: functional; settings: Rattus norvegicus
# INS1 [5] = assay: caspase-3/7 inhibition in cytokine-treated INS-1E, dose response, beta-cell apoptosis inhibitor project, cell-based, caspase luminescence, dry powder (AID 488848); type: functional; settings: Rattus norvegicus
# INS1 [6] = assay: inhibitors of cytokine-induced nitrite release, dose response, cell-based, Griess absorbance, INS-1E, dry powder, set 2 (AID 488868); type: functional; settings: Rattus norvegicus
# INS1 [7] = assay: protection of INS-1E cells from cytokine death, dose response, ATP luminescence, dry powder (AID 488844); type: functional, cell-based; settings: Rattus norvegicus
# [8] = target: Glycogen synthase kinase-3 alpha (Homo sapiens, UniProt P49840); assay: Inhibition of Human GSK-3 alpha Activity Measured in Biochemical System Using Microfluidics - 2063-06_Inhibitor_Dose_DryPowder_Activity_Set2. [Related pubchem assays (depositor defined):AID2709]
# [9] = target: T1, Glycogen synthase kinase-3 beta (Homo sapiens, UniProt P49841); assay: Inhibition of Human GSK-3 beta Activity Measured in Biochemical System Using Microfluidics - 2063-05_Inhibitor_Dose_DryPowder_Activity_Set2. [Related pubchem assays (depositor defined):AID2709]
# T1 sequence (P49841 whole entry): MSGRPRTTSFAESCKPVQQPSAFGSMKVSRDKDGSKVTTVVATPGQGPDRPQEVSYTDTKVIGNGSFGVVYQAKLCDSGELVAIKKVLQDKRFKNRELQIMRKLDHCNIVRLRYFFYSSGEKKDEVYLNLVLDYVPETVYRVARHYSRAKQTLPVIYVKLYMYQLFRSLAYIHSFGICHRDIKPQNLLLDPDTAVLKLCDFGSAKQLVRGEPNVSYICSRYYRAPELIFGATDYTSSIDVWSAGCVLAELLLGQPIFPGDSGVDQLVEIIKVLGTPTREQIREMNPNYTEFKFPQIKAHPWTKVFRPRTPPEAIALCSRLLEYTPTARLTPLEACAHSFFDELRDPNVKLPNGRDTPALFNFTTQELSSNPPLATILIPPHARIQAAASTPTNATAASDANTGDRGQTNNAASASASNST
# Caspase-3 = target: T2, Caspase-3 (Homo sapiens, UniProt P42574); assay: caspase-3 inhibitors as off-family protease, SAR follow-up, selectivity assay for SENP protease inhibitor project, biochemical, luminescence, set 2 (AID 588599); type: functional
# T2 sequence (P42574 whole entry): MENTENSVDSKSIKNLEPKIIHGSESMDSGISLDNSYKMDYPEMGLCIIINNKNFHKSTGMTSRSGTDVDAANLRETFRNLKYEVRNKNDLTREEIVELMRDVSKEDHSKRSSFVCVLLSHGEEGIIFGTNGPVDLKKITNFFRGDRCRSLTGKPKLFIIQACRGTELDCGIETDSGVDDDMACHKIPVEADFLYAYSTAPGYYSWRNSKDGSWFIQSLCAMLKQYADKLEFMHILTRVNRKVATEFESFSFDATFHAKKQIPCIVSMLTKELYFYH
# [10] = target: T3, Sentrin-specific protease 8 (Homo sapiens, UniProt Q96LD8); assay: SENP8 protease inhibitors, SAR follow-up, biochemical, luminescence, set 2 (AID 588601); type: functional
# T3 sequence (Q96LD8 whole entry): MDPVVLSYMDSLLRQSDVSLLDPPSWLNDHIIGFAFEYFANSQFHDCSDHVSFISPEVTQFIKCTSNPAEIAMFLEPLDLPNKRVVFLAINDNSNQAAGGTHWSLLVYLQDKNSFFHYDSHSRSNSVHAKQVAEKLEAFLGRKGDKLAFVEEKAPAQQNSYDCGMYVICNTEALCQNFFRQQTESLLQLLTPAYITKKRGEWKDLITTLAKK
# [11] = target: T4, Sentrin-specific protease 7 (Homo sapiens, UniProt Q9BQF6); assay: SENP7 protease inhibitors, SAR follow-up, biochemical, luminescence, set 2 (AID 588600); type: functional
# T4 sequence (Q9BQF6 whole entry): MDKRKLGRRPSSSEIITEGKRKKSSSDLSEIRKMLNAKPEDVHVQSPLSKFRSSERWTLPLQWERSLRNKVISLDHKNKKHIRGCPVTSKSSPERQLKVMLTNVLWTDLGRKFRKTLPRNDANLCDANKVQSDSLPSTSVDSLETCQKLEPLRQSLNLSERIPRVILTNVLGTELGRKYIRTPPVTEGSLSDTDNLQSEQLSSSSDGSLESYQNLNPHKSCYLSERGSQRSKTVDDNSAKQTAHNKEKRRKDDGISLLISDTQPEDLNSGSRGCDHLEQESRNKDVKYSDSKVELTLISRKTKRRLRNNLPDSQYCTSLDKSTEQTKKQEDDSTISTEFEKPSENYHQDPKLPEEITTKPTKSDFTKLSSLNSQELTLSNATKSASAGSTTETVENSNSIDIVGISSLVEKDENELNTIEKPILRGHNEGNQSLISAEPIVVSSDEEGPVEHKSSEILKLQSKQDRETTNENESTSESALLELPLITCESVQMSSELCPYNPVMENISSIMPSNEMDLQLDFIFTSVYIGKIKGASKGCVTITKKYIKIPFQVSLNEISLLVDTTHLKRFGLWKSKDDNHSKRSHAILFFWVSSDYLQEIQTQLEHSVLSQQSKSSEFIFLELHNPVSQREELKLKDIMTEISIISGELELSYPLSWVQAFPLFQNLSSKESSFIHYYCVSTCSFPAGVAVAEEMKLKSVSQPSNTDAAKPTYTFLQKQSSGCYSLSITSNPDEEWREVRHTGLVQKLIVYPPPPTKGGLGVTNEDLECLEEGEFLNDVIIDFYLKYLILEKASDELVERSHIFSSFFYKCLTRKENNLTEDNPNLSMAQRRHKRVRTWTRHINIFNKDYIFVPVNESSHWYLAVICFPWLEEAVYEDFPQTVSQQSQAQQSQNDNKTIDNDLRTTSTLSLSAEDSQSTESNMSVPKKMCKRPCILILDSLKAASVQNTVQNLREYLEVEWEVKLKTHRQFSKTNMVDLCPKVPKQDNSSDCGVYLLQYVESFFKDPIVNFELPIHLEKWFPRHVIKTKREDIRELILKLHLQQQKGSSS
# [12] = target: T5, Sentrin-specific protease 6 (Homo sapiens, UniProt Q9GZR1); assay: SENP6 protease inhibitors, SAR follow-up, biochemical, luminescence, set 2 (AID 588598); type: functional
# T5 sequence (Q9GZR1 whole entry): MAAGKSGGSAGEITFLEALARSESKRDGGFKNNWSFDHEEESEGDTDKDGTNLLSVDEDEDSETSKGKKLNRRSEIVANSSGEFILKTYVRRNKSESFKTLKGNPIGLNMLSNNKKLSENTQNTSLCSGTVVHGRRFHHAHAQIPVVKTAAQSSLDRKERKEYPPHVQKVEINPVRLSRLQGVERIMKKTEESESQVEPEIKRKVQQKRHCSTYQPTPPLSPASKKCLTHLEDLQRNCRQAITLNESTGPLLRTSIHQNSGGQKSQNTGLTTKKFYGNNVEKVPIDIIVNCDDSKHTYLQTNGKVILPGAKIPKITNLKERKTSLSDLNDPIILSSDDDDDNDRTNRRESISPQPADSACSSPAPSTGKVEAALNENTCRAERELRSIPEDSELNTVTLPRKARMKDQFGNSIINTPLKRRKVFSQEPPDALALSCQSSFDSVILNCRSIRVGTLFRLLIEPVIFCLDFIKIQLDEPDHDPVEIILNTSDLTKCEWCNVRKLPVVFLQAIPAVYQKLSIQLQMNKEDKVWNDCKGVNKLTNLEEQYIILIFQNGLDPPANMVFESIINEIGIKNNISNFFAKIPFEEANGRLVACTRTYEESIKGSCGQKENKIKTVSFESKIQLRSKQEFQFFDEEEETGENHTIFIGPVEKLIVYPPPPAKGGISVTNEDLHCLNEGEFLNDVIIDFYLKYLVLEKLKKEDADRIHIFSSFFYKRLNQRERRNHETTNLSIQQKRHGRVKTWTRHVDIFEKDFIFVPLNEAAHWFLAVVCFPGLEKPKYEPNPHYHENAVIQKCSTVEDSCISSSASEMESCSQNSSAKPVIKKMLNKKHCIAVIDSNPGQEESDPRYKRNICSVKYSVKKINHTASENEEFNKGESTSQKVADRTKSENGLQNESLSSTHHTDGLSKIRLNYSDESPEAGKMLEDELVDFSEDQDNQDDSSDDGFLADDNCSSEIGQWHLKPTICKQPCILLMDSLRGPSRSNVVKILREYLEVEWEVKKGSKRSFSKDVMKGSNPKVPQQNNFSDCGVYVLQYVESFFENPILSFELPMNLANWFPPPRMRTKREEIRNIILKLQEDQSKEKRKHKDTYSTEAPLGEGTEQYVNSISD
# [13] = target: Dual specificity protein kinase CLK4 (Homo sapiens, UniProt Q9HAZ1); type: functional
# Dual specificity protein kinase CLK4, sequence (Q9HAZ1 whole entry): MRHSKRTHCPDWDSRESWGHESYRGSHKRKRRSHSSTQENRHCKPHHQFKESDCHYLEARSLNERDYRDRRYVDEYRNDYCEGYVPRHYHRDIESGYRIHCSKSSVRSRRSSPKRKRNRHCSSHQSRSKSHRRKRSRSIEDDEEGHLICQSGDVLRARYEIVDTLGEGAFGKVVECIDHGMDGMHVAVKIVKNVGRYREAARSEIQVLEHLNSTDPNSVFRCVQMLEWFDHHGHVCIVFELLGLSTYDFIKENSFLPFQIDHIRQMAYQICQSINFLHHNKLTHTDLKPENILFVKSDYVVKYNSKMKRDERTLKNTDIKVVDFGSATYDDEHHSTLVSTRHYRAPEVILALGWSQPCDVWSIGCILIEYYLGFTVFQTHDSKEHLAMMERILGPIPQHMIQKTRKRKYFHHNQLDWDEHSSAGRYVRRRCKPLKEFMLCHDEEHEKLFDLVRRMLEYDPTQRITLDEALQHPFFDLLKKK
# [14] = target: Cyclin-dependent kinase 5 (Homo sapiens, UniProt Q00535); type: functional;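 note: CDK5 measured as one member of a kinase profiling panel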
# [15] = target: Platelet-derived growth factor receptor alpha (Homo sapiens, UniProt P16234); assay: Navigating the Kinome. Panel member name: PDGFRA; type: functional
# [16] = target: Mitogen-activated protein kinase 8 (Homo sapiens, UniProt P45983); type: functional;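 note: value comes from one member of a kinome-wide kinase profiling panel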
# Mitogen-activated protein kinase 8, sequence (P45983 whole entry): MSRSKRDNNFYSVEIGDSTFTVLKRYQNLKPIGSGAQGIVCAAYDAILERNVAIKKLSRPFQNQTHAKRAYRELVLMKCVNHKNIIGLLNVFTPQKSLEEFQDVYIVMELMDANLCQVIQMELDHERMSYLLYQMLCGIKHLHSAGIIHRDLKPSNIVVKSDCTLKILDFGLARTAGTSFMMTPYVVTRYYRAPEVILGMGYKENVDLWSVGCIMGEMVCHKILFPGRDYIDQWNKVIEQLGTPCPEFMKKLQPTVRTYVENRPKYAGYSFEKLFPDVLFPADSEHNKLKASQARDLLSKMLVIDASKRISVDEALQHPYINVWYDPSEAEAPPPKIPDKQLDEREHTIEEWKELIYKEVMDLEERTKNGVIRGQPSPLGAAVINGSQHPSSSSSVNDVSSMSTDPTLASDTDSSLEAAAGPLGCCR
# [17] = target: Protein kinase C theta type (Homo sapiens, UniProt Q04759); assay: Navigating the Kinome. Panel member name: PRKCQ; type: functional
# [18] = target: Dual specificity tyrosine-phosphorylation-regulated kinase 1A (Homo sapiens, UniProt Q13627); type: functional;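 note: measured against DYRK1A as one member of a broad kinome profiling panel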
# [19] = target: Vascular endothelial growth factor receptor 2 (Homo sapiens, UniProt P35968); type: functional
# [20] = target: Cyclin-dependent kinase 19 (Homo sapiens, UniProt Q9BWU1); assay: Navigating the Kinome. Panel member name: CDC2L6; type: functional
# [21] = target: Cyclin-dependent kinase 9 (Homo sapiens, UniProt P50750); type: functional;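 note: value from the CDK9 entry of a kinome-spanning kinase panel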
# [22] = target: Macrophage colony-stimulating factor 1 receptor (Homo sapiens, UniProt P07333); type: functional;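 note: value comes from the Navigating the Kinome screening panel, CSF1R member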
# Aurora kinase A = Aurora kinase A (Homo sapiens, UniProt O14965); type: functional;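 note: value from the Navigating the Kinome kinase panel profiling, panel entry STK6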
# Aurora kinase A, sequence (O14965 whole entry): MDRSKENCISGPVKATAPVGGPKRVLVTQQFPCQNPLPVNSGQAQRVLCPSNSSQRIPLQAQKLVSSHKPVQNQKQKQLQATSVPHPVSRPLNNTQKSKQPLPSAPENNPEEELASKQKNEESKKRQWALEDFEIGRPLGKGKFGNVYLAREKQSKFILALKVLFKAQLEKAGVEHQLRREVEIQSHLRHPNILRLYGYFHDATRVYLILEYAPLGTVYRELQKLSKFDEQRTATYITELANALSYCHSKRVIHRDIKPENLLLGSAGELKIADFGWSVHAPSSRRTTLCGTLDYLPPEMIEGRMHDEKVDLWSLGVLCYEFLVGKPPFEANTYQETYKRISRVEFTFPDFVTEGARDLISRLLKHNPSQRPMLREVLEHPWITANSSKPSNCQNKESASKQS
# [23] = target: Dual specificity mitogen-activated protein kinase kinase 1 (Homo sapiens, UniProt Q02750); assay: Navigating the Kinome. Panel member name: MAP2K1; type: functional
# Dual specificity mitogen-activated protein kinase kinase 1, sequence (Q02750 whole entry): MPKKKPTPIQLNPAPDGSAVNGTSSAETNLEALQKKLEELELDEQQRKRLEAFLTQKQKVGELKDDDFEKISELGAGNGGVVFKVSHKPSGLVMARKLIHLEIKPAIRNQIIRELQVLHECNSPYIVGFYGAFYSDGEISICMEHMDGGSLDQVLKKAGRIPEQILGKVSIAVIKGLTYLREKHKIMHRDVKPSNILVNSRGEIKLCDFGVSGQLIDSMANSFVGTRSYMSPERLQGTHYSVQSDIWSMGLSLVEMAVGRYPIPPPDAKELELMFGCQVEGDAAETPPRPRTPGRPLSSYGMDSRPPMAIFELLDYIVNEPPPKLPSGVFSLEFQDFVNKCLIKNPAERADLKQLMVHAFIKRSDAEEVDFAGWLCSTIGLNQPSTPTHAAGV
# [24] = target: Dual specificity tyrosine-phosphorylation-regulated kinase 1B (Homo sapiens, UniProt Q9Y463); assay: Navigating the Kinome. Panel member name: DYRK1B; type: functional
# Dual specificity tyrosine-phosphorylation-regulated kinase 1B, sequence (Q9Y463 whole entry): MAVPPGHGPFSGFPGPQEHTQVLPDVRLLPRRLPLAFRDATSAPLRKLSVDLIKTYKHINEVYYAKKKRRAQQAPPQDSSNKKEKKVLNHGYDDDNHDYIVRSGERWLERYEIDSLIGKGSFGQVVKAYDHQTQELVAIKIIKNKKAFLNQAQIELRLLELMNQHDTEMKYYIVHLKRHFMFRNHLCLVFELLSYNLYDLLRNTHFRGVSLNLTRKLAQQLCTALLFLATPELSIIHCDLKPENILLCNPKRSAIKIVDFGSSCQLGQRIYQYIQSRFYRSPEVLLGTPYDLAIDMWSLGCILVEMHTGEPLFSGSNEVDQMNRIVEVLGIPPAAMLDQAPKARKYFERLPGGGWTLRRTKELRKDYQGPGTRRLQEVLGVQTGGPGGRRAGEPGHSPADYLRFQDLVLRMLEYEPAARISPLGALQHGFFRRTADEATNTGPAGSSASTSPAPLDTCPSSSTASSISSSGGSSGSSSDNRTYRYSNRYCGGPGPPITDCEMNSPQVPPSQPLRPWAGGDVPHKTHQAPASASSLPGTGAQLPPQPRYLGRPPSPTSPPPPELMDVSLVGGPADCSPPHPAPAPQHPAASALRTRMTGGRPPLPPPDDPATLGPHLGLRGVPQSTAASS
# [25] = target: cAMP-dependent protein kinase catalytic subunit alpha (Homo sapiens, UniProt P17612); type: functional
# [26] = target: Homeodomain-interacting protein kinase 2 (Homo sapiens, UniProt Q9H2X6); type: functional;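 note: measured within a kinome-wide kinase profiling panel, HIPK2 being one panel member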
# Homeodomain-interacting protein kinase 2, sequence (Q9H2X6 whole entry): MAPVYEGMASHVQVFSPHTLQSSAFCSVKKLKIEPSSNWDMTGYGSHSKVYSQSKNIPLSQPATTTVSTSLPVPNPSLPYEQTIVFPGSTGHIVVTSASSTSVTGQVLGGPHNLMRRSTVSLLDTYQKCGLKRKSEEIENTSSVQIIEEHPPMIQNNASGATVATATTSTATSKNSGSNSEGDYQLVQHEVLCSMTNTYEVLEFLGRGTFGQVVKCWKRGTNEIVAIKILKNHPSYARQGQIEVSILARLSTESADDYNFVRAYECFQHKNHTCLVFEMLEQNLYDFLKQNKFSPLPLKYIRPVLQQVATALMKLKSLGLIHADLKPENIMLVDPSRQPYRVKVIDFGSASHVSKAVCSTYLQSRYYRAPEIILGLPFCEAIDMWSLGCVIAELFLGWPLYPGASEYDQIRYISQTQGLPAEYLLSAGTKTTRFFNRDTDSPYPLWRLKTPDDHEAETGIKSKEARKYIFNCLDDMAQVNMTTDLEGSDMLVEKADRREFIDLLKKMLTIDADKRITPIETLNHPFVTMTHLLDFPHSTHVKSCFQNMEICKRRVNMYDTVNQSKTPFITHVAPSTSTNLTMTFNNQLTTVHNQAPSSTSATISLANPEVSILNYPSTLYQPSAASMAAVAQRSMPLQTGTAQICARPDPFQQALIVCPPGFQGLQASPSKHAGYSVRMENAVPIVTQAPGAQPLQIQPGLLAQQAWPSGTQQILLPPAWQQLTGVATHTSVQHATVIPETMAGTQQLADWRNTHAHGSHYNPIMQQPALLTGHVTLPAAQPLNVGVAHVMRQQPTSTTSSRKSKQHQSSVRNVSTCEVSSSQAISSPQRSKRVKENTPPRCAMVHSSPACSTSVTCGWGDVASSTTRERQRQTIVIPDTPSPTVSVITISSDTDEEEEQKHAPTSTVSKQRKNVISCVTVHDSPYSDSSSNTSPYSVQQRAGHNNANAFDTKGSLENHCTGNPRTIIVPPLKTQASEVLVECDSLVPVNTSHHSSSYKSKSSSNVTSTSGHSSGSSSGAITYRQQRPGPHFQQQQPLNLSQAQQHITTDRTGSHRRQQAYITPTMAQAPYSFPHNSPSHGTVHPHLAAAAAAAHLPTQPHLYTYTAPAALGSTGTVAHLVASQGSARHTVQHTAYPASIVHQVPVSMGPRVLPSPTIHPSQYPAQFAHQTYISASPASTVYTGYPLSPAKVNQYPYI
# [27] = target: Serine/threonine-protein kinase pim-1 (Homo sapiens, UniProt P11309); type: functional
# [28] = target: Cell division cycle 7-related protein kinase (Homo sapiens, UniProt O00311); type: functional;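 note: value obtained from a kinome-wide kinase panel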
# Cell division cycle 7-related protein kinase, sequence (O00311 whole entry): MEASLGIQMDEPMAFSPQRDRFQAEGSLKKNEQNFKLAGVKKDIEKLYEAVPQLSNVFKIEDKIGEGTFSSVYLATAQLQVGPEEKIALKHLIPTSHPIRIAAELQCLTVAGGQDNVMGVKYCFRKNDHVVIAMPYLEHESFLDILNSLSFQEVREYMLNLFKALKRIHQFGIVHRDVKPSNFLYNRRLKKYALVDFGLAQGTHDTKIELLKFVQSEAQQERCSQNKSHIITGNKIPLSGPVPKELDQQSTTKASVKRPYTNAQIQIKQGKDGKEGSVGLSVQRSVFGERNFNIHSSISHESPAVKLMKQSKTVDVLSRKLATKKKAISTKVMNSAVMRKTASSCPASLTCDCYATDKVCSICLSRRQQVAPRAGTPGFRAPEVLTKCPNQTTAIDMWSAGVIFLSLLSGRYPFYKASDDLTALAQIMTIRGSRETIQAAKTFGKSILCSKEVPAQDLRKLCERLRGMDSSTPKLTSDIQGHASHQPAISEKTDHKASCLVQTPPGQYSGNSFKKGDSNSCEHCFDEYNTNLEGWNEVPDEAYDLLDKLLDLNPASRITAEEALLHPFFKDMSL
# [29] = target: Interleukin-1 receptor-associated kinase 4 (Homo sapiens, UniProt Q9NWZ3); type: functional
# Interleukin-1 receptor-associated kinase 4, sequence (Q9NWZ3 whole entry): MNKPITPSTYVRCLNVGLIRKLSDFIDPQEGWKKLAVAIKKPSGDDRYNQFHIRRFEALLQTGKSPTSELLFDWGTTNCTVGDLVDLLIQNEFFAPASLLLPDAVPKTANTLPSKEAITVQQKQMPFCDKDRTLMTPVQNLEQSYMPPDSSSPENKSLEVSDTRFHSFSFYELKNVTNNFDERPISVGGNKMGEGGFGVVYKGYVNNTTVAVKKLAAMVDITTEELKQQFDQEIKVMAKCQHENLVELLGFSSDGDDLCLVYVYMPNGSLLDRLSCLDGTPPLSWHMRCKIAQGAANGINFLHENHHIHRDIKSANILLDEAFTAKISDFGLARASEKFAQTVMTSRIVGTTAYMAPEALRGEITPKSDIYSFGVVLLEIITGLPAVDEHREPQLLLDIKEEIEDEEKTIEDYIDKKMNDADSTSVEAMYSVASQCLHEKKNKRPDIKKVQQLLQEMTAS
# [30] = target: Mitogen-activated protein kinase kinase kinase kinase 4 (Homo sapiens, UniProt O95819); type: functional
# [31] = target: T1, Glycogen synthase kinase-3 beta; type: functional
# [32] = target: Tyrosine-protein kinase receptor TYRO3 (Homo sapiens, UniProt Q06418); type: functional;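 note: TYRO3 value obtained as one member of a kinome-wide profiling panel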
# [33] = target: Proto-oncogene tyrosine-protein kinase receptor Ret (Homo sapiens, UniProt P07949); type: functional;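 note: measured within a kinome-wide profiling panel, RET as the panel member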
# [34] = A Cell Based Secondary Assay to Explore Cytotoxicity in THP-1 Cells of Compounds that Modulate Mycobacterium tuberculosis in Media Containing Glycerol versus Media without Glycerol (2).; type: functional
# [35] = A Cell Based Secondary Assay to Explore Cytotoxicity in HepG2 Cells of Compounds that Modulate Mycobacterium tuberculosis in Media Containing Glycerol versus Media without Glycerol (2).; type: functional
# [36] = Luminescence Cell-Based Dose Retest to Confirm Inhibitors of Cancer Stem Cells. [Related pubchem assays (depositor defined):AID2717, AID2721]; type: functional; settings: Homo sapiens
# [37] = Vero cell cytotoxicity, cytotoxicity control for M. tuberculosis inhibitor project, purified and synthesized samples, set 3 (AID 504684); type: functional
structure (smiles),measurement,setting,value
O=C(c1cccc(Cl)c1)N1CCN(c2ccccn2)CC1,AC50,Candida albicans [1],0.073 µM (active)
same,AC50,Candida albicans [2],< 0.195 µM (active)
c1ccc(C2c3[nH]c4ccccc4c3CCN2Cc2cccn2-c2ccccn2)nc1 (centres undefined),AC50,HEK293,110 µM (active)
same,AC50,[3],29.8 µM (active)
Cc1ccc(S(=O)(=O)N(C)C[C@@H]2Oc3c(NC(=O)Nc4ccc(F)cc4)cccc3C(=O)N([C@@H](C)CO)C[C@H]2C)cc1,AC50,INS1 [4],83.3 µM (active)
same,AC50,INS1 [5],27.4 µM (active)
same,AC50,INS1 [6],41 µM (active)
same,AC50,INS1 [7],28.7 µM (active)
CN(C)Cc1c(C(=O)N/N=C/c2ccncc2)nnn1-c1nonc1N,AC50,[8],0.597 µM (active)
same,AC50,[9],0.255 µM (active)
COc1ccc(Br)c(C(=O)Nc2nc3ccc(C)cc3s2)c1,IC50,Caspase-3,3.57 µM (active)
same,IC50,[10],1.78 µM (active)
same,IC50,[11],2.13 µM (active)
same,IC50,[12],2.02 µM (active)
Cc1[nH]c(=O)oc(=O)c1-c1ccccc1,Ki,[13],20 µM (active)
same,Ki,[14],63.1 µM (active)
same,Ki,[15],63.1 µM (active)
same,Ki,[16],79.4 µM (active)
NC(=O)c1cnn2c(-c3ccccc3)ccnc12,Ki,[13],3.98 µM (active)
same,Ki,[17],> 100 µM (inactive)
same,Ki,[18],> 79.4 µM (inactive)
same,Ki,[19],> 100 µM (inactive)
same,Ki,[20],> 100 µM (inactive)
same,Ki,[21],> 63.1 µM (inactive)
same,Ki,[22],> 100 µM (inactive)
same,Ki,Aurora kinase A,> 63.1 µM (inactive)
same,Ki,[23],50.1 µM (active)
same,Ki,[24],15.8 µM (active)
same,Ki,[25],> 50.1 µM (inactive)
CCCCNc1cc(-c2ccncc2)cc2[nH]nc(N)c12,Ki,[26],0.398 µM (active)
same,Ki,[27],2.51 µM (active)
same,Ki,[28],0.0126 µM (active)
same,Ki,[13],0.00316 µM (active)
same,Ki,[29],0.0794 µM (active)
same,Ki,[30],0.316 µM (active)
same,Ki,[31],0.398 µM (active)
same,Ki,[25],0.398 µM (active)
O=C1NS(=O)(=O)c2cccc(Cl)c21,Ki,[32],31.6 µM (active)
same,Ki,[33],100 µM (active)
same,Ki,[24],50.1 µM (active)
S=c1[nH]cnc2nc[nH]c12 [MERCAPTOPURINE],CC50,[34],30.4 µM (active)
same,CC50,[35],5.55 µM (active)
same,AC50,[36],0.561 µM (active)
same,CC50,[37],76.5 µM (active)
